US11000033B2, “Ketone or oxime compound, and herbicide” (NISSAN CHEMICAL CORPORATION, priority 2014, dated 2021)

Experiments:
[1] = test system: Echinochloa crus-galli var. crus-galli; experiment: Test Example 5: herbicidal effect by foliage application, plastic box (symbol H); format: in vivo; conditions: 320 g/ha, 3 weeks after application
In short: (§1)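 Seeds were sown in sterilized diluvial soil, covered with about 1.5 cm of soil and grown 14 days in a greenhouse at 25° C. to 30° C. An emulsifiable formulation diluted in water to a set rate was sprayed over foliage, and injury was scored 3 weeks later.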

soybean = experiment: Test Example 5: effect on crop by foliage application, plastic box (symbol d); format: in vivo; conditions: 320 g/ha, 3 weeks after application
In short: (§2)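 Greenhouse test at 25° C. to 30° C. Seeds of crops and weeds were spot-sown in boxes of sterilized diluvial soil under roughly 1.5 cm soil cover, then grown for foliage treatment.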

beet = experiment: Test Example 5: effect on crop by foliage application, plastic box (symbol f); format: in vivo; conditions: 320 g/ha, 3 weeks after application
In short: as §2

Apera spica-venti = experiment: Test Example 5: herbicidal effect by foliage application, plastic box (symbol L); format: in vivo; conditions: 320 g/ha, 3 weeks after application
In short: as §1

Veronica persica = experiment: Test Example 5: herbicidal effect by foliage application, plastic box (symbol R); format: in vivo; conditions: 320 g/ha, 3 weeks after application
In short: as §1

Digitaria ciliaris = experiment: Test Example 5: herbicidal effect by foliage application, plastic box (symbol F); format: in vivo; conditions: 320 g/ha, 3 weeks after application
In short: as §1

Abutilon theophrasti = experiment: Test Example 5: herbicidal effect by foliage application, plastic box (symbol M); format: in vivo; conditions: 320 g/ha, 3 weeks after application
In short: as §1

corn = experiment: Test Example 5: effect on crop by foliage application, plastic box (symbol c); format: in vivo; conditions: 320 g/ha, 3 weeks after application
In short: as §2

Stellaria media = experiment: Test Example 5: herbicidal effect by foliage application, plastic box (symbol P); format: in vivo; conditions: 320 g/ha, 3 weeks after application
In short: as §1

rapeseed = experiment: Test Example 5: effect on crop by foliage application, plastic box (symbol g); format: in vivo; conditions: 320 g/ha, 3 weeks after application
In short: as §2

rice plant = experiment: Test Example 5: effect on crop by foliage application, plastic box (symbol b); format: in vivo; conditions: 320 g/ha, 3 weeks after application
In short: as §2

Alopecurus myosuroides = experiment: Test Example 5: herbicidal effect by foliage application, plastic box (symbol J); format: in vivo; conditions: 320 g/ha, 3 weeks after application
In short: as §1

Setaria viridis = experiment: Test Example 5: herbicidal effect by foliage application, plastic box (symbol G); format: in vivo; conditions: 320 g/ha, 3 weeks after application
In short: as §1

Lolium multiflorum Lam. = experiment: Test Example 5: herbicidal effect by foliage application, plastic box (symbol K); format: in vivo; conditions: 320 g/ha, 3 weeks after application
In short: as §1

Avena fatua = experiment: Test Example 5: herbicidal effect by foliage application, plastic box (symbol I); format: in vivo; conditions: 320 g/ha, 3 weeks after application
In short: as §1

Amaranthus retroflexus = experiment: Test Example 5: herbicidal effect by foliage application, plastic box (symbol N); format: in vivo; conditions: 320 g/ha, 3 weeks after application
In short: as §1

wheat = experiment: Test Example 5: effect on crop by foliage application, plastic box (symbol e); format: in vivo; conditions: 320 g/ha, 3 weeks after application
In short: as §2

[2] = test system: directly sowed rice plant; experiment: Test Example 3: effect on crop by foliage application, Wagner pot (symbol b); format: in vivo; conditions: application herbicide amount 320 g/ha
In short: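 Alluvial soil in a 1/10000-are Wagner pot was flooded to a water depth of 0.1–0.5 cm. Echinochloa crus-galli var. crus-galli, Leptochloa chinensis, Cyperus difformis and rice were sown into it and grown in a greenhouse at 25–30 °C.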

Galium spurium = experiment: Test Example 5: herbicidal effect by foliage application, plastic box (symbol Q); format: in vivo; conditions: 320 g/ha, 3 weeks after application
In short: as §1

[3] = test system: Echinochloa crus-galli var. crus-galli; experiment: Test Example 3: herbicidal effect by foliage application, Wagner pot (symbol H); format: in vivo; conditions: application herbicide amount 320 g/ha
In short: (§3)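 Foliar spray of a water-diluted emulsion at a predetermined herbicide amount, applied to 14-day-old plants. Seedlings were raised in flooded alluvial soil (0.1–0.5 cm water) at 25–30 °C in a greenhouse. Injury was rated after 3 weeks against fixed criteria.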

Leptochloa chinensis = experiment: Test Example 3: herbicidal effect by foliage application, Wagner pot (symbol D); format: in vivo; conditions: application herbicide amount 320 g/ha
In short: as §3

Chenopodium album = experiment: Test Example 5: herbicidal effect by foliage application, plastic box (symbol O); format: in vivo; conditions: 320 g/ha, 3 weeks after application
In short: as §1

Cyperus difformis = experiment: Test Example 3: herbicidal effect by foliage application, Wagner pot (symbol E); format: in vivo; conditions: application herbicide amount 320 g/ha
In short: as §3

Row | melting point | SMILES | H: Echinochloa crus-galli var. crus-galli, herbicidal effect grade [1] | d: soybean, effect on crop grade (soybean) | f: beet, effect on crop grade (beet) | L: Apera spica-venti, herbicidal effect grade (Apera spica-venti) | R: Veronica persica, herbicidal effect grade (Veronica persica) | F: Digitaria ciliaris, herbicidal effect grade (Digitaria ciliaris) | M: Abutilon theophrasti, herbicidal effect grade (Abutilon theophrasti) | c: corn, effect on crop grade (corn) | P: Stellaria media, herbicidal effect grade (Stellaria media) | g: rapeseed, effect on crop grade (rapeseed) | b: directly sowed rice plant, effect on crop grade (rice plant) | J: Alopecurus myosuroides, herbicidal effect grade (Alopecurus myosuroides) | G: Setaria viridis, herbicidal effect grade (Setaria viridis) | K: Lolium multiflorum Lam., herbicidal effect grade (Lolium multiflorum Lam.) | I: Avena fatua, herbicidal effect grade (Avena fatua) | N: Amaranthus retroflexus, herbicidal effect grade (Amaranthus retroflexus) | e: wheat, effect on crop grade (wheat) | other results
1 | 192 to 195 °C | CON=C(C)CC1CC(OC)=C(c2c(C)cc(O)cc2C)C1=O (stereo not drawn) [6-069] |  |  |  |  |  |  |  |  |  |  |  |  |  |  |  |  |  | 
2 | 82 to 85 °C | CON=C(C)CC1CC(OC)=C(c2c(C)cc(OC)cc2C)C1=O (stereo not drawn) [6-048] |  |  |  |  |  |  |  |  |  |  |  |  |  |  |  |  |  | 

The next lines start with the compound.

Row | SMILES | melting point | H: Echinochloa crus-galli var. crus-galli, herbicidal effect grade [1] | d: soybean, effect on crop grade (soybean) | f: beet, effect on crop grade (beet) | L: Apera spica-venti, herbicidal effect grade (Apera spica-venti) | R: Veronica persica, herbicidal effect grade (Veronica persica) | F: Digitaria ciliaris, herbicidal effect grade (Digitaria ciliaris) | M: Abutilon theophrasti, herbicidal effect grade (Abutilon theophrasti) | c: corn, effect on crop grade (corn) | P: Stellaria media, herbicidal effect grade (Stellaria media) | g: rapeseed, effect on crop grade (rapeseed) | b: directly sowed rice plant, effect on crop grade (rice plant) | J: Alopecurus myosuroides, herbicidal effect grade (Alopecurus myosuroides) | G: Setaria viridis, herbicidal effect grade (Setaria viridis) | K: Lolium multiflorum Lam., herbicidal effect grade (Lolium multiflorum Lam.) | I: Avena fatua, herbicidal effect grade (Avena fatua) | N: Amaranthus retroflexus, herbicidal effect grade (Amaranthus retroflexus) | e: wheat, effect on crop grade (wheat) | other results
3 | CON=C(C)CC1CC(O)=C(c2c(C)cc([N+](=O)[O-])cc2C)C1=O (stereo not drawn) [6-032] | 181 to 183 °C | 4 (Herbicidal ratio of 70% or higher and lower than 90%) | 0 (Herbicidal ratio of 5% or lower (almost no effect)) | 0 (Herbicidal ratio of 5% or lower (almost no effect)) | 0 (Herbicidal ratio of 5% or lower (almost no effect)) | 0 (Herbicidal ratio of 5% or lower (almost no effect)) | 4 (Herbicidal ratio of 70% or higher and lower than 90%) | 0 (Herbicidal ratio of 5% or lower (almost no effect)) | 0 (Herbicidal ratio of 5% or lower (almost no effect)) | 0 (Herbicidal ratio of 5% or lower (almost no effect)) | 0 (Herbicidal ratio of 5% or lower (almost no effect)) | 0 (Herbicidal ratio of 5% or lower (almost no effect)) | 0 (Herbicidal ratio of 5% or lower (almost no effect)) | 3 (Herbicidal ratio of 40% or higher and lower than 70%) | 0 (Herbicidal ratio of 5% or lower (almost no effect)) | 0 (Herbicidal ratio of 5% or lower (almost no effect)) | 0 (Herbicidal ratio of 5% or lower (almost no effect)) | 0 (Herbicidal ratio of 5% or lower (almost no effect)) | 
4 | CON=C(C)CC1CC(O)=C(c2c(C)cc(C#N)cc2C)C1=O (stereo not drawn) [6-027] | 181 to 184 °C | 4 (Herbicidal ratio of 70% or higher and lower than 90%) | 0 (Herbicidal ratio of 5% or lower (almost no effect)) | 0 (Herbicidal ratio of 5% or lower (almost no effect)) | 0 (Herbicidal ratio of 5% or lower (almost no effect)) | 0 (Herbicidal ratio of 5% or lower (almost no effect)) | 3 (Herbicidal ratio of 40% or higher and lower than 70%) | 0 (Herbicidal ratio of 5% or lower (almost no effect)) | 1 (Herbicidal ratio of 5% or higher and lower than 20%) | 0 (Herbicidal ratio of 5% or lower (almost no effect)) | 0 (Herbicidal ratio of 5% or lower (almost no effect)) | 1 (Herbicidal ratio of 5% or higher and lower than 20%) | 0 (Herbicidal ratio of 5% or lower (almost no effect)) | 4 (Herbicidal ratio of 70% or higher and lower than 90%) | 0 (Herbicidal ratio of 5% or lower (almost no effect)) | 1 (Herbicidal ratio of 5% or higher and lower than 20%) | 0 (Herbicidal ratio of 5% or lower (almost no effect)) | 0 (Herbicidal ratio of 5% or lower (almost no effect)) | effect on crop b (directly sowed rice plant), grade 0-5 [2]: 0 (Herbicidal ratio of 5% or lower (almost no effect)); Q: Galium spurium, herbicidal effect grade (Galium spurium): 0 (Herbicidal ratio of 5% or lower (almost no effect)); herbicidal effect on H (Echinochloa crus-galli var. crus-galli), grade 0-5 [3]: 2 (Herbicidal ratio of 20% or higher and lower than 40%); herbicidal effect on D (Leptochloa chinensis), grade 0-5 (Leptochloa chinensis): 3 (Herbicidal ratio of 40% or higher and lower than 70%); O: Chenopodium album, herbicidal effect grade (Chenopodium album): 0 (Herbicidal ratio of 5% or lower (almost no effect)); herbicidal effect on E, grade 0-5 (Cyperus difformis): 0 (Herbicidal ratio of 5% or lower (almost no effect))
5 | CON=C(C)CC1CC(OC)=C(c2c(C)cc(OCC(F)(F)F)cc2C)C1=O (stereo not drawn) [6-042] | 117 to 119 °C |  |  |  |  |  |  |  |  |  |  |  |  |  |  |  |  |  | 
